Measurements from patent US20240360122A1, “POLYMORPHIC FORMS AND SALTS OF A GLP-1R AGONIST” (Terns (Suzhou) Biotechnology Co., Ltd., priority 2023, published 2024).
Where a name gives a salt, the structure may show the parent alone. Marks after values point to notes of the source that are not given here.

How the values were obtained:
Format in all cases: physicochemical
[1] = Kinetic solubility in water and bio-relevant media (SGF, FaSSIF, FeSSIF) at 37° C.; conditions: for S: Solubility: calculated by freeform; for FC: Form change: residual solids by XRPD
Description: Add 4 mL of medium (H2O, SGF, FaSSIF and FeSSIF). • Rolled at 37° C. (˜25 rpm). Sampling at 1, 2, 4 and 24 hrs. • At each time-point, sampled 0.8 mL of solution or suspension into a centrifuge tube prior to centrifugation (12000 rpm, 37° C., 5 min) and filtration through 0.45 μm PTFE membrane. • Tested pH and concentration for the filtrate. Analyze residual solids by XRPD.
0.1 g of NaCl and 0.05 g of Triton X-100 were weighed into a 50-mL volumetric flask. Purified water was added to dissolve the solid. 67.5 μL HCl (38%, 12M) was added after the solid was dissolved completely. pH was then adjusted to 1.8 using HCl (1 M) or NaOH (1 M). Purified water was added to the volume.
0.17 g of anhydrous NaH2PO4, 0.021 g of NaOH and 0.31 g of NaCl were weighed into a 50-mL volumetric flask. ˜48 mL purified water was added to dissolve the solid. pH was adjusted to 6.5 using 1M HCl or 1M NaOH. Purified water was then added to the volume. 0.11 g of SIF powder was added into the volumetric flask.
0.41 mL of acetic acid, 0.20 g of NaOH and 0.59 g of NaCl were weighed into a 50-mL volumetric flask. ˜48 mL purified water was added to dissolve the solid. pH was adjusted to 5.0 using 1M HCl or 1M NaOH. Purified water was then added to the volume. 0.56 g of SIF powder was added into the volumetric flask.

[2] = Hygroscopicity by DVS at 25° C.
Description: DVS was measured via a SMS (Surface Measurement Systems) DVS Intrinsic. The relative humidity at 25° C. were calibrated against deliquescence point of LiCl, Mg(NO3)2 and KCl.

[3] = Solid state stability at 25° C./60% RH and 40° C./75% RH for 1 week
Description: Each sample was added into a glass vial, sealed by parafilm with several holes, and kept under tested conditions. After one week, samples were taken for XRPD and HPLC purity test.

[4] = Approximate solubility in different solvents at RT
Description: For each experiment, approximately 2 mg of sample was added into a 3-mL glass vial. Corresponding solvents were then added stepwise (50/50/200/700/1000 μL) into the vials until the solids were dissolved visually or a total volume of 2 mL was reached. Solubility results summarized in Table 64 to Table 66 were used to guide the solvent selection in polymorph screening design.

N#Cc1ccc(COc2cccc(C3CCN(Cc4nc5ccc(C(=O)O)cc5n4Cc4cncs4)CC3)n2)c(F)c1 [Tris salt Type C]
S: Solubility ([1]; FaSSIF, 37° C., 1 hr): 0.16 mg/mL | FC: Form change ([1]; FaSSIF, 37° C., 1 hr): Yes | S: Solubility ([1]; FaSSIF, 37° C., 2 hrs): 0.29 mg/mL | FC: Form change ([1]; FaSSIF, 37° C., 2 hrs): Yes | S: Solubility ([1]; FaSSIF, 37° C., 4 hrs): 0.28 mg/mL | FC: Form change ([1]; FaSSIF, 37° C., 4 hrs): Yes | S: Solubility ([1]; FaSSIF, 37° C., 24 hrs): 0.04 mg/mL | FC: Form change ([1]; FaSSIF, 37° C., 24 hrs): Yes | S: Solubility ([1]; FeSSIF, 37° C., 1 hr): 0.17 mg/mL | FC: Form change ([1]; FeSSIF, 37° C., 1 hr): No | S: Solubility ([1]; FeSSIF, 37° C., 2 hrs): 0.13 mg/mL | FC: Form change ([1]; FeSSIF, 37° C., 2 hrs): No | S: Solubility ([1]; FeSSIF, 37° C., 4 hrs): 0.02* mg/mL | FC: Form change ([1]; FeSSIF, 37° C., 4 hrs): No | FC: Form change ([1]; FeSSIF, 37° C., 24 hrs): Yes | solubility at 24 h ([1]; FeSSIF, 37 °C, pH 5, fessif, thermodynamic from solid, FeSSIF, 37° C., at 24 hrs, read-out: solubility in FeSSIF): 140 µg/mL | S: Solubility ([1]; H2O, 37° C., 1 hr): 0.46 mg/mL | FC: Form change ([1]; H2O, 37° C., 1 hr): No | S: Solubility ([1]; H2O, 37° C., 2 hrs): 0.59 mg/mL | FC: Form change ([1]; H2O, 37° C., 2 hrs): Yes | S: Solubility ([1]; H2O, 37° C., 4 hrs): 2.5 mg/mL | FC: Form change ([1]; H2O, 37° C., 4 hrs): Yes | S: Solubility ([1]; H2O, 37° C., 24 hrs): 0.99 mg/mL | FC: Form change ([1]; H2O, 37° C., 24 hrs): Yes | S: Solubility ([1]; SGF, 37° C., 1 hr): 0.15 mg/mL | FC: Form change ([1]; SGF, 37° C., 1 hr): No | S: Solubility ([1]; SGF, 37° C., 2 hrs): 0.03* mg/mL | FC: Form change ([1]; SGF, 37° C., 2 hrs): No | S: Solubility ([1]; SGF, 37° C., 4 hrs): 0.04* mg/mL | FC: Form change ([1]; SGF, 37° C., 4 hrs): Yes | S: Solubility ([1]; SGF, 37° C., 24 hrs): 0.17 mg/mL | FC: Form change ([1]; SGF, 37° C., 24 hrs): Yes | form change of residual solids (XRPD) after solubility test ([1]; all the media (H2O, SGF, FaSSIF, FeSSIF), after 24 hrs): form change was observed | Kinetic Solubility, 24-h solubility ([1]; in FeSSIF, 24 h, comparison among selected salts and Freeform Type C): 2) In FeSSIF, the 24-h solubility of Tris salt Type C was higher. | water uptake (DVS) ([2]; 25° C./80% RH): 1.44% | hygroscopicity ([2]; DVS, 25° C.): slightly hygroscopic | Water uptake at 25° C./80% RH ([2]; DVS, 25° C./80% RH): 1.44 wt % | For change after DVS ([2]; XRPD after DVS test): No | form change after DVS test (XRPD) ([2]; after DVS test): no form change | HPLC peak Area, RRT 0.70 ([3]; 25° C./60% RH, 1 week): 0.06% | HPLC peak Area, RRT 0.79 ([3]; 25° C./60% RH, 1 week): 0.23% | HPLC peak Area, RRT 0.80 ([3]; 25° C./60% RH, 1 week): 0.05% | HPLC peak Area, RRT 0.85 ([3]; 25° C./60% RH, 1 week): 0.07% | HPLC peak Area, RRT 0.93 ([3]; 25° C./60% RH, 1 week): 0.09% | Form change ([3]; 25° C./60% RH/Open/1 week): No | Purity ([3]; 25° C./60% RH/Open/1 week): 96.76 Area % | solid-state stability: form change and purity decrease ([3]; 25° C./60% RH/open and 40° C./75% RH/open, 1 week): no form change or significant purity decrease | HPLC peak Area, RRT 0.70 ([3]; 40° C./75% RH, 1 week): 0.05% | HPLC peak Area, RRT 0.79 ([3]; 40° C./75% RH, 1 week): 0.25% | HPLC peak Area, RRT 0.80 ([3]; 40° C./75% RH, 1 week): 0.05% | HPLC peak Area, RRT 0.85 ([3]; 40° C./75% RH, 1 week): <0.05% | HPLC peak Area, RRT 0.93 ([3]; 40° C./75% RH, 1 week): 0.09% | HPLC peak Area, RRT 0.99 ([3]; 40° C./75% RH, 1 week): <0.05% | HPLC peak Area, RRT 1.12 ([3]; 40° C./75% RH, 1 week): 0.05% | Form change ([3]; 40° C./75% RH/Open/1 week): No | Purity ([3]; 40° C./75% RH/Open/1 week): 96.82 Area % | HPLC peak Area, RRT 0.70 ([3]; Initial): 0.05% | HPLC peak Area, RRT 0.79 ([3]; Initial): 0.21% | HPLC peak Area, RRT 0.80 ([3]; Initial): 0.05% | HPLC peak Area, RRT 0.85 ([3]; Initial): 0.08% | HPLC peak Area, RRT 0.93 ([3]; Initial): 0.09% | HPLC peak Area, RRT 1.12 ([3]; Initial): 0.06% | Purity ([3]; Initial): 96.55 Area %

N#Cc1ccc(COc2cccc(C3CCN(Cc4nc5ccc(C(=O)O)cc5n4Cc4cncs4)CC3)n2)c(F)c1 [Freeform Type D]
Approximate solubility ([4]; 1,4-Dioxane, RT): S < 1.1 mg/mL | Approximate solubility ([4]; 2-MeTHF, RT): S < 1.0 mg/mL | Approximate solubility ([4]; Anisole, RT): S < 1.0 mg/mL | Approximate solubility ([4]; CHCl3, RT): S < 1.1 mg/mL | Approximate solubility ([4]; CPME, RT): S < 0.9 mg/mL | Approximate solubility ([4]; DMSO, RT): S > 44.0 mg/mL | Approximate solubility ([4]; H2O, RT): S < 1.1 mg/mL | Approximate solubility ([4]; IPA, RT): S < 1.1 mg/mL | Approximate solubility ([4]; MTBE, RT): S < 1.1 mg/mL | Approximate solubility ([4]; Toluene, RT): S < 1.0 mg/mL | Approximate solubility ([4]; n-Heptane, RT): S < 1.0 mg/mL
